From patent US8722043B2, “Induction of p53 expression by neutralization of neuropilin-2 for the treatment of cancers” (Diaclone, priority 2008, dated 2014)

Key:
[1] = test system: Colo320 human tumour cells; experiment: Tumour colony formation in semi-solid agar medium; type: cell-based; conditions: for number of colonies formed: 50 μg/ml, 10 days post-seeding (FIG. 9)
Experimental: In order to determine whether the ITAC-B1 antibody has a neutralizing activity on the formation of tumour colonies in vitro, tests for tumour colony formation in vitro in a semi-solid agar medium containing agar were carried out. The principle of this test is based on bringing Colo320 human tumour cells (which express NRP-2 at their membrane surface and, furthermore, naturally secrete VEGF into the culture medium) into contact with the ITAC-B1 antibody. 4000 Colo320 cells are seeded into each well of a 24-well plate, in a semi-solid medium containing agar, and in the presence of 10 μg/ml of anti-NRP-2 antibody ITAC-B1. By way of comparison, the same test is carried out in the presence of cytotoxic agents with a proven action, i.e. 5-fluorouracil (5-FU), used at a rate of 50 μg/ml, or of Avastin® (bevacizumab: humanized monoclonal antibodies directed against VEGF), used at a rate of 50 μg/ml, or in the presence of a control isotype antibody (mouse IgG1 monoclonal antibody (BZ1)), used at a rate of 10 μg/ml.
At 10 days post-seeding, the colonies were counted under an optical microscope.
Since neuropilin-2 is a coreceptor for VEGF, it was verified whether the activity of ITAC-B1 was dependent on an interaction between NRP-2 and the VEGF produced by the Colo320 cells. With this aim, the tests for Colo320-cell colony formation were carried out under the conditions described above, and in the presence of ITAC-B1 antibody (10 μg/ml), of bevacizumab (50 μg/ml) or of control antibody (10 μg/ml), used separately or in combination.
The results are given in FIG. 10: the y-axis represents the number of colonies formed; on the x-axis, the antibodies present in the culture medium are indicated by a “+”.

mutant p53 proteins = conditions: model of human xenograft; review Levesque & Eastman 2007; cited from earlier work
HT29-NRP-2 tumour cells = experiment: HT29-NRP-2 subcutaneous xenograft, tumour volume; type: in vivo, immunodeficient mice; conditions: group C: 5-FU intraperitoneally 20 mg/kg D0 to D4, 100 mg/kg at D9
Experimental: HT29-NRP-2 tumour cells were injected subcutaneously into 20 immunodeficient mice, at a rate of 1×10^6 cells per mouse, in the right flank. 10 days after the injection, the tumours measure approximately 5 mm×5 mm.
In accordance with the protocol described above, group B was inoculated with ITAC-B1 at D0 (12 mg/kg), D3 (6 mg/kg), D7 (12 mg/kg) and D10 (6 mg/kg). Group C was inoculated with 20 mg/kg of 5-FU from D0 to D4 and then with 100 mg/kg at D9. Group D was inoculated with ITAC-B1 at D0 (12 mg/kg), D3 (6 mg/kg), D7 (12 mg/kg) and D10 (6 mg/kg) and with 20 mg/kg of 5-FU from D0 to D4 and 100 mg/kg of 5-FU at D9.
The tumours were measured twice a week, and the volume of the tumours was calculated with the formula: V (mm^3)=d^2×D/2.
FIG. 21 represents the tumour volume as a function of time. Group A (PBS control) is represented by (⋄), group B (mice inoculated with the ITAC-B1 antibody) is represented by (▪), group C (mice inoculated with 5-FU) is represented by (Δ), and group D (mice inoculated both with the ITAC-B1 antibody and with 5-FU) is represented by (x).

Colo320siRNA-ctrl cells = experiment: Annexin V-APC apoptosis test with or without PFTα pretreatment; type: cell-based, human; conditions: PFTα 27 μM, 18 h pretreatment
Experimental: In order to correlate the induction of apoptosis with p53 expression, the Colo320siRNA-ctrl cells were pretreated for 18 h with a chemical inhibitor of p53, pifithrin-α, at a dose of 27 μM (PFTα, Sigma). After pretreatment, the cells are washed twice with 3 ml of PBS and placed in a 24-well plate, at a rate of 100 000 cells/well in 1 ml of RPMI-10% FCS. Non-pretreated cells are placed under the same conditions. The cells are incubated for 5 h with a control murine isotype antibody (BZ1) or ITAC-B1 at 20 μg/ml and the apoptosis is measured as described above.
FIG. 14 represents the results of the apoptosis-induction experiments carried out with the Colo320siRNA-ctrl cells pretreated or not pretreated with PFTα. The percentage of cells labelled with Annexin V-APC is indicated on the y-axis, the cell culture conditions are indicated on the x-axis (control consisting of medium, control consisting of medium supplemented with a control isotype antibody -BZ1-, test consisting of medium supplemented with the ITAC-B1 antibody). The results of the tests carried out with cells pretreated with PFTα are represented in light grey, those of the tests carried out with non-pretreated cells are represented in dark grey.

HT29-NRP-2 cells = experiment: Annexin V-APC apoptosis test; type: cell-based, human; conditions: selection criterion of the hybridoma clones
Experimental: In order to determine the ability of the ITAC-B1 antibody to induce apoptosis of tumour cells expressing NRP-2, an in vitro Annexin V-APC apoptosis test was carried out (BD Pharmingen, San Diego, Calif.). This test is based on the externalization of phosphatidylserin by apoptotic cells and on the binding of Annexin V-APC to this molecule.
1 ml of DMEM medium containing 10% of inactivated FCS and 100 000 HT29-NRP-2 cells or 100 000 HT29ctrl cells were seeded, per well, into a 24-well Nunc plate. […] In parallel, “cells alone” controls were carried out, as were negative controls (anti-human mouse IgG1 antibody (BZ1) at the same concentrations as the ITAC-B1 antibody).
[…] When the cells began to detach, 500 μl of DMEM medium-10% FCS were added per well. The cells were then centrifuged, washed twice in PBS, and then taken up in 300 μl of 1× binding buffer (provided in the kit), and then 5 μl of Annexin V-APC were subsequently added to 100 μl of this solution.
The panels of FIG. 13 are point-cloud representations of the flow cytometry analysis. For each of the panels, the fluorescence intensity (corresponding to the labelling of the cells with Annexin V-APC) is represented on the x-axis. The y-axis indicates the granulosity of the cells (Side Scatter or SSC). […] The percentage of cells labelled with Annexin V-APC (corresponding to the percentage of cells having entered into apoptosis) is indicated at the bottom-right of each panel.
The apoptosis induced was then measured by labelling with Annexin V-APC as described above.
The panels of FIG. 15 are point-cloud representations of the flow cytometry analysis. For each of the panels, the fluorescence intensity (corresponding to the labelling of the cells with Annexin V-APC) is represented on the x-axis. The y-axis indicates the granulosity (side scatter) of the cells. The conditions of treatment with the antibodies and the Avastin® are indicated to the left of the panels. The percentage of cells labelled with the Annexin V-APC, corresponding to the percentage of cells having entered into apoptosis, is indicated at the top-right of each panel.

p53 protein = experiment: Western blotting of p53 expression after antibody treatment; type: cell-based, human; conditions: HT29-NRP-2 and Colo320^siRNA-ctrl; 20 ng/ml, 48 hours
Experimental: The HT29, HT29-NRP-2, Colo320^siRNA-ctrl tumour cells and Colo320^siRNA-NRP-2 were exposed to 20 ng/ml of ITAC-B1 antibody or of control antibody, and cultured for 48 hours. After lysis of the cell lines, migration of the protein pellets obtained on a 10% polyacrylamide gel (10 μg of protein per well) and then transfer onto a PVDF membrane, the membrane was incubated overnight with the anti-p53 primary antibody (BD Biosciences, mouse anti-human p53) diluted to 1/500. After washing in TBS/0.1% Tween20, the membranes were incubated for 1 hour with an anti-mouse IgG-HRP secondary antibody diluted to 1/6000. The results are represented in FIG. 19.

Molecule: bevacizumab [Avastin®]
- number of colonies formed [1]: approximately 120
- effect on the proliferation of the Colo320 cells (number of colonies) ([1]; bevacizumab 50 μg/ml (FIG. 10)): very little effect

Molecule: O=C1C2CCN(CC2)C1(CO)CO [PRIMA-1]
- tumour growth (mutant p53 proteins): successfully used to inhibit tumour growth

Molecule: COc1ccc(/C=C/c2nc(NCCCN(C)C)c3ccccc3n2)cc1 [CP-31398]
- tumour growth (mutant p53 proteins): successfully used to inhibit tumour growth

Molecule: O=c1[nH]cc(F)c(=O)[nH]1 [5-FU, 5-fluorouracil, reference compound]
- number of colonies formed [1]: approximately 40
- tumour volume (HT29-NRP-2 tumour cells): reduction in tumour volume is observed starting from D14

Molecule: CCC(=O)OCN1C(=O)C=CC1=O [MIRA-1]
- tumour growth (mutant p53 proteins): successfully used to inhibit tumour growth

Molecule: Cc1ccc(C(=O)Cn2c3c(sc2=N)CCCC3)cc1 [PFTα, pifithrin-α, reference compound]
- effect of pretreatment on ITAC-B1-dependent apoptosis (Colo320siRNA-ctrl cells): prevents the ITAC-B1-dependent apoptosis

B1: ITAC-B2: anti-human neuropilin-2 monoclonal antibody, VH SEQ ID No. 6, VL SEQ ID No. 8 (antibody, listed as Mus musculus, V domains shown)
VH: EVQLEESGGGLVKPGGSLKLSCAASGFTFSDYYMYWVRQTPEKRLEWVATISDGGSYTYYPDSIKGRFTISRDNARNNLYLQMSSLKSEDTAMYYCARGGPYRSWFAFWGQGTLVTVSA
VL: DIVITQTPLSLPVSLGDQASISCRSSQSIVYSNGNTYLEWYLQKPGQSPKLLIYKVSNRFSGVPDRFSGSGSGTDFTLKISRVEAEDLGVYYCFQGSHVPPTFGGGTKLEIK
- ability to induce apoptosis of tumour cells expressing neuropilin-2 (selection of clones) (HT29-NRP-2 cells): ability to induce apoptosis of tumour cells expressing neuropilin-2
- expression of p53 in lines which express NRP-2 (p53 protein): have the Ability to Induce Expression of the p53 Protein
